In brackets after ≈: the same amount, converted by molar mass. Some results are limits rather than exact numbers.

The test system of one assay is HT-1080. Nature of the assay: Antiproliferative activity against human HT1080 cells by MTT assay. The format is functional, cell-based.
A short description of assay [1]: Antiproliferative activity against mouse Colon 26-L5 cells by MTT assay. Format: functional, cell-based.

A word on the EC50: it is the midpoint of the concentration-response curve. Regarding `C=C1[C@@H](O)CC[C@@]2(C)C[C@H](O)C3=C(C)C[C@H](OC(=O)[C@@H](C)CC)[C@@H]([C@@H](OC(C)=O)[C@H]12)C3(C)C` [HONGDOUSHAN C], the EC50 in the assay with HT-1080 was 61.1 µg/mL (≈ 132 µM); in assay [1], 3.8 µg/mL (≈ 8.21 µM).
For `CC(=O)O[C@H]1C[C@]2(C(C)(C)O)C(=C1C)[C@@H](O)[C@@H](OC(=O)c1ccccc1)[C@]1(C)[C@@H](OC(C)=O)C[C@H](O)[C@@]3(OC(C)=O)CO[C@H]2[C@H]31` [TAXUYUNNANINE E], in that order: above 100 µg/mL and above 100 µg/mL.
Consider `C=C1[C@@H](OC(C)=O)CC[C@]2(C)[C@@H]1C[C@@H]1C[C@H](OC(C)=O)C(C)=C([C@@H](OC(C)=O)[C@@H]2OC(C)=O)C1(C)C` [TAXUSIN], for which the EC50 in the assay on HT-1080 amounted to 61.4 µg/mL (≈ 122 µM); in assay [1], 51.7 µg/mL (≈ 102 µM).
Taken in the same sequence, the figures for `C=C1[C@@H](OC(C)=O)CC[C@@]2(C)C[C@H](O)C3=C(C)C[C@H](OC(=O)[C@@H](C)CC)[C@@H]([C@@H](OC(C)=O)[C@H]12)C3(C)C` [HONGDOUSHAN A] were 61 µg/mL (≈ 121 µM) and 40.1 µg/mL (≈ 79.5 µM).
For `C=C1[C@@H](OC(C)=O)CC[C@@]2(C)C[C@H](OC(C)=O)C3=C(C)C[C@H](OC(=O)[C@@H](C)CC)[C@@H]([C@@H](OC(C)=O)[C@H]12)C3(C)C`, in that order: 84.9 µg/mL (≈ 155 µM) and 84.1 µg/mL (≈ 154 µM).
Taken in the same sequence, the figures for `C=C1[C@@H](OC(C)=O)CC[C@@]2(C)C[C@H](O)C3=C(C)C[C@H](OC(=O)CC)[C@@H]([C@@H](OC(C)=O)[C@H]12)C3(C)C` [HONGDOUSHAN B] were above 100 µg/mL and 70.4 µg/mL (≈ 148 µM).
Consider `COc1cc([C@H]2c3cc(O)c(OC)cc3C[C@H]3C(=O)OC[C@H]23)ccc1O` [ALPHA-CONIDENDRIN], for which the EC50 (with HT-1080; in assay [1]) was above 100 µg/mL throughout.
With `COc1cc(C[C@@H](CO)[C@H](CO)Cc2ccc(O)c(OC)c2)ccc1O` [(+)-SECOISOLARICIRESINOL], the EC50 in the assay on HT-1080 came to 5.9 µg/mL (≈ 16.3 µM); in assay [1] it was 60.2 µg/mL (≈ 166 µM).
For `O=c1[nH]cc(F)c(=O)[nH]1` [FLUOROURACIL], in that order: 0.29 µg/mL (≈ 2.23 µM) and 0.07 µg/mL (≈ 0.538 µM).

(Values after ChEMBL document CHEMBL1150140, “Three new C-14 oxygenated taxanes from the wood of Taxus yunnanensis” (J Nat Prod, 2002).)
